The nature of this data set: Lactam solubility in water or water + ethyl lactate (48 hours agitation, filtration, HPLC quantification). The data set is classed as physicochemical. The settings on record: for Mean Lactam Level in Solution: 48 hours agitation. The method, then:
The following example uses, without limitation, 4-(4-chlorophenyl)-5-methylene-pyrrol-2-one and ethyl lactate.
Excess solid lactam (˜3 mg) was placed in a Whatman® Mini Uniprep sample vial, fitted with a 0.45 μm nylon filter. Water or water+ethyl lactate (500 μL) was added the mixture shaken and tapped briefly to initially disperse the solid and the mixture then agitated for 48 hours using a plate shaker fitted with a vial holder (see image below). After 48 hours, the solid was removed from the system by pressing down the plunger with integral filter on the vial (see image below). This removes the solid and provides filtered solution within the inner chamber which is then ready for analysis.
The level of lactam dissolved in solution was quantified using HPLC analysis. Samples were analysed on an Agilent 1200® series HPLC fitted with a Thermo Hypersil® Gold C18 column (15×2.1×3 μm), isocratic elution with 60/40 methanol/water (+0.1% Formic Acid), 0.4 mL/min flow rate, using a DAD detector at 285 nm. 4-(4-chlorophenyl)-5-methylene-pyrrol-2-one has a retention time of ˜2.8 minutes.
The absolute level of lactam in solution is measured and reported as an increase in solubility of lactam relative to water alone.

[1] abbreviates: 0 % ethyl lactate in water (water alone).

As for `C=C1NC(=O)C=C1c1ccc(Cl)cc1` [4-(4-chlorophenyl)-5-methylene-pyrrol-2-one], the “Solubility Increase vs water alone” value runs as follows: under setting [1], 1.00; (0.5 % ethyl lactate in water) 1.21; (1 % ethyl lactate in water) 1.21; (2 % ethyl lactate in water) 1.99; (5 % ethyl lactate in water) 4.63; (10 % ethyl lactate in water) 10.57. Moreover, the “Mean Lactam Level in Solution” value reads like this: under setting [1], 5.7 ppm; (0.5 % ethyl lactate in water) 6.9 ppm; (1 % ethyl lactate in water) 6.9 ppm; (2 % ethyl lactate in water) 11.3 ppm; (5 % ethyl lactate in water) 26.4 ppm; (10 % ethyl lactate in water) 60.2 ppm.

(Values after US11077036B2, “Lactam solubility” (Conopco, Inc., priority 2015, dated 2021).)
